Laboratory results published in US4668397A, “Novel cyclic octapeptide, method for production of said octapeptide, and ion extracting/separating agent using said octapeptide as principal component” (Agency of Industrial Science & Technology, priority 1984, dated 1987).
Non-standard residues stand in square brackets, D forms with d. Residues, ends and D or L forms follow the SMILES beside them. *: point of attachment. Orn = NCCC[C@H](N)C(=O)O; Cbz = O=C(OCc1ccccc1)*; Boc = CC(C)(C)OC(=O)*; OBn = c1ccc(CO*)cc1; Sar = CNCC(=O)O

Legend:
[1] = Ion transfer through chloroform phase between two water phases in a U-shaped tube; settings: for Amount of ions transferred: K, 200 μM in chloroform phase, pH 7.5, 10 hours; for transferring ability for potassium ion: from Table 2
Experimental: (§1) In a U-shaped tube 15 mm in inside diameter, two water phases (a), (b) (each 10 ml) were separated by an intervening chloroform phase (15 ml). In the water phase (a), a chloride of potassium ions and calcium ions (10 mM), picric acid (25 mM), and good buffer HEPES (10 mM) were dissolved and adjusted to pH 7.5 with lithium hydroxide. In the chloroform phase, the compound of this invention was dissolved in a concentration of 200 μM. The two water phases (a), (b) were stirred with a mechanical stirrer and the chloroform phase was stirred with a magnetic stirrer. After 10 hours of stirring, the amount of potassium ions or calcium ions which had been transferred from the water phase (a) through the chloroform phase into the water phase (b) was determined based on the absorption of picrate anion. For comparison, the procedure described above was repeated by using a naturally occurring calcium-ion ionophore A 23187, the cyclic tetrapeptide, i.e. cyclo(glycyl-ε-benzyloxycarbonyl-L-lysyl-sarcosyl-L-prolyl) (D-1), the linear octapeptide, i.e. tertiary butyloxycarbonylglycyl-ε-benzyloxycarbonyl-L-lysyl-sarcosyl-L-propyl-glycyl-ε-benzyloxycarbonyl-L-lysyl-sarcosyl-L-proline methyl ester (E-1), and using no substance dissolved in the chloroform phase.

[2] = Ion transfer through chloroform phase (liquid membrane) between two water phases in a U-shaped tube; settings: for Amount of ions transferred: Ca^2+, 200 μM in chloroform phase, pH 7.5, 10 hours; for transferring ability for calcium ion: from Table 2
Experimental: as §1

[3] = Solution extraction and recovery of calcium ion; settings: 1 g compound in 100 ml chloroform; sample pH 6.9; back-extraction with 2M ammonium chloride and 2M hydrochloric acid
Experimental: (§2) The amount 100 ml of chloroform solution having dissolved therein 1 g of the compound (C-1) of this invention obtained in Example 1 and 100 ml of a sample solution containing 1 g of magnesium picrate and 100 mg of […] (adjusted to pH 6.9 with acetic acid and sodium acetate) were thoroughly shaken and then left standing for 30 minutes. From the resultant mixture, the chloroform phase was collected. The chloroform phase was washed with 100 ml of an aqueous solution containing 0.01M of lithium picrate (adjusted to pH 6.9 with acetic acid and sodium acetate), followed by collection of chloroform phase. This washing operation was repeated three times to collect the chloroform phase. This chloroform phase was thoroughly shaken with 100 ml of an aqueous solution containing 2M of ammonium chloride and 2M of hydrochloric acid. The shaken mixture was left standing at rest for 30 minutes, followed by collection of the aqueous phase. The aqueous phase was tested for recovery of calcium ion. […] At that time, the concentration of magnesium was 10^-3 times the initial concentration. Thus, by the method of solution extraction using the compound of this invention, calcium ions could be efficiently separated from a large amount of magnesium ions.

[4] = Solution extraction, separation from magnesium; settings: after extraction and recovery of calcium ion; sample with 1 g magnesium picrate
Experimental: as §2

[5] = Extraction equilibrium constant, chloroform / aqueous metal ion chloride and picric acid, absorbance of picrate anion; settings: chloroform/water, pH 7.4, average of five concentrations
Experimental: The compound (C-1) of this invention obtained in Example 1 was dissolved in concentrations of […] in chloroform. Then 5-ml portions of each of the five solutions so prepared were mixed one each with 5-ml aqueous solutions (pH 7.4) of metallic ion chloride (10 mM), picric acid (25 mM), and good buffer HEPES (10 mM) and shaken for 30 minutes. The shaken mixtures were left stading for one hour. Then, based on the absorbance of picrate anion in the chloroform phase, the extraction equilibrium constants of the compound (C-1) of this invention for the various ions were determined. The results so obtained were compared with those of the comparative cyclic tetrapeptide, i.e. cyclo(glycyl-ε-benzyloxycarbonyl-L-lysyl-sarcosyl-L-prolyl) (D-1), and the linear octapeptide, i.e. tertiary butyloxycarbonylglycyl-ε-benzyloxycarbonyl-L-lysyl-sarcosyl-L-prolylglycyl-ε-benzyloxycarbonyl-[…]-L-proline methyl ester (E-1).
The results expressed as logarithms of the average values obtained by using the five chloroform solutions of varying concentration are shown in Table 1.

| SMILES | Amount of ions transferred [1] | Amount of ions transferred [2] | recovery ratio of calcium ion [3] | concentration of magnesium relative to the initial concentration [4] | Logarithm of ion extraction equilibrium constant ([5]; Ba^2+) | Logarithm of ion extraction equilibrium constant ([5]; Ca^2+) | Logarithm of ion extraction equilibrium constant ([5]; K^+) | Logarithm of ion extraction equilibrium constant ([5]; Mg^2+) | Logarithm of ion extraction equilibrium constant ([5]; Na^+) | Logarithm of ion extraction equilibrium constant ([5]; Rb^+) | transferring ability for potassium ion [1] | transferring ability for calcium ion [2] |
| --- | --- | --- | --- | --- | --- | --- | --- | --- | --- | --- | --- | --- |
| CNc1ccc2oc(C[C@H]3O[C@@]4(CC[C@H]3C)O[C@H]([C@H](C)C(=O)c3ccc[nH]3)[C@H](C)C[C@H]4C)nc2c1C(=O)O [Compound A23187] | 0.1 μ · mol | 4.7 μ · mol | – | – | – | – | – | – | – | – | – | – |
| CN1CC(=O)N2CCC[C@H]2C(=O)NCC(=O)N[C@@H](CCCCNC(=O)OCc2ccccc2)C(=O)N(C)CC(=O)N2CCC[C@H]2C(=O)NCC(=O)N[C@@H](CCCCNC(=O)OCc2ccccc2)C1=O [Compound C-1, cyclo(glycyl-ε-benzyloxycarbonyl-L-lysyl-sarcosyl-L-prolyl)2] (cyclo(GK(Cbz)[Sar]PGK(Cbz)[Sar]P)) | 0.5 μ · mol | 5.4 μ · mol | 95% | 10^-3 times the initial concentration | 6.0 | 5.6 | 2.6 | 3.4 | 2.3 | 2.6 | – | – |
| CN1CC(=O)N2CCC[C@H]2C(=O)NCC(=O)N[C@@H](CCCNC(=O)OCc2ccccc2)C(=O)N(C)CC(=O)N2CCC[C@H]2C(=O)NCC(=O)N[C@@H](CCCNC(=O)OCc2ccccc2)C1=O [Compound C-2, cyclo(glycyl-δ-benzyloxycarbonyl-L-ornithyl-sarcosyl-L-prolyl)2] (cyclo(G[Orn](Cbz)[Sar]PG[Orn](Cbz)[Sar]P)) | 0.4 μ · mol | 5.1 μ · mol | – | – | – | – | – | – | – | – | – | – |
| CN1CC(=O)N2CCC[C@H]2C(=O)NCC(=O)N[C@@H](CCC(=O)OCc2ccccc2)C(=O)N(C)CC(=O)N2CCC[C@H]2C(=O)NCC(=O)N[C@@H](CCC(=O)OCc2ccccc2)C1=O [Compound C-3, cyclo(glycyl-γ-benzyl-L-glutamylsarcosyl-L-prolyl)2] (cyclo(E(OBn)[Sar]PGE(OBn)[Sar]PG)) | 0.3 μ · mol | 4.9 μ · mol | – | – | – | – | – | – | – | – | – | – |
| CN1CC(=O)N2CCC[C@H]2C(=O)NCC(=O)N[C@@H](CC(=O)OCc2ccccc2)C(=O)N(C)CC(=O)N2CCC[C@H]2C(=O)NCC(=O)N[C@@H](CC(=O)OCc2ccccc2)C1=O [Compound C-4, cyclo(glycyl-β-benzyl-L-aspartylsarcosyl-L-prolyl)2] (cyclo(D(OBn)[Sar]PGD(OBn)[Sar]PG)) | 0.3 μ · mol | 4.8 μ · mol | – | – | – | – | – | – | – | – | – | – |
| CN1CC(=O)N2CCC[C@H]2C(=O)NCC(=O)N[C@@H](CCCCNC(=O)OCc2ccccc2)C1=O [Compound D-1, cyclo(glycyl-ε-benzyloxycarbonyl-L-lysyl-sarcosyl-L-prolyl)] (cyclo(GK(Cbz)[Sar]P)) | 0.1 μ · mol | 0.4 μ · mol | – | – | 1.9 | 1.7 | 1.2 | 1.2 | 1.1 | 1.2 | virtually no transferring ability | virtually no transferring ability |
| COC(=O)[C@@H]1CCCN1C(=O)CN(C)C(=O)[C@H](CCCCNC(=O)OCc1ccccc1)NC(=O)CNC(=O)[C@@H]1CCCN1C(=O)CN(C)C(=O)[C@H](CCCCNC(=O)OCc1ccccc1)NC(=O)CNC(=O)OC(C)(C)C [Compound E-1, tertiary butyloxycarbonylglycyl-ε-benzyloxycarbonyl-L-lysyl-sarcosyl-L-propyl-glycyl-ε-benzyloxycarbonyl-L-lysyl-sarcosyl-L-proline methyl ester] (Boc-GK(Cbz)[Sar]PGK(Cbz)[Sar]P-OMe) | 0.2 μ · mol | 0.3 μ · mol | – | – | 1.3 | 1.1 | 0.9 | 0.9 | 0.9 | 0.9 | virtually no transferring ability | virtually no transferring ability |
